The numbers were not newly measured in US11793953B2, “Inhalers and related methods” (Norton (Waterford) Limited, priority 2017, dated 2023), which cites them from elsewhere.

Regarding `FCC(F)(F)F` [HFA134a, 1,1,1,2-tetrafluoroethane], the surface tension result (as liquid at 25° C.) is given as “about 8 mN/m”. In addition, where the note is “at 20° C.”, the vapor pressure was 572 kpa.
